In patent US12679822B2, “Alkenyl pyrimidine compound, preparation method therefor, and application thereof” (Hongyun Biotech Co., Ltd., priority 2020, dated 2026):

How the values were obtained:
Format in all cases: cell-based
[1] = molecular target: BaF3 cell lines stably transfected with kinase EGFR Del/T790M/C797S (Homo sapiens, UniProt P00533, T790M/C797S, cells depend on it, form not given); experiment: Growth inhibition of BaF3 cell line stably transfected with kinase EGFR Del/T790M/C797S (MTS); conditions: 48 h, read-out: growth inhibitory activity IC50, Del/T790M/C797S
Description: (§1) Biological Activity Assay: Growth Inhibitory Activity of Compounds on Cell Lines Stably Transfected with Kinase
(§2) The activity of compounds against various mutants of kinase EGFR was evaluated by their effect of inhibiting growth of BaF3 cell lines stably transfected with kinase. The specific test method was given as follows:
(§3) 1) Culture medium: DMEM (Dulbecco's modified eagle medium) or RPMI 1640 (containing 10% fetal bovine serum, 100 μg/mL ampicillin, 100 μg/mL streptomycin).
(§4) 2) Reagent: MTS reaction solution (containing 2 mg/mL of MTS [3-(4,5-di methylthiazol-2-yl)-5-(3-carboxymethoxyphenyl)-2-(4-sulfophenyl)-2H-tetrazolium, inner Salt]; 100 μg/mL of PES (phenazine […])).
(§5) 3) Compound test: cells were incubated into a 96-well culture plate, the volume of cytosol was 90 μL, and then 10 μL of the compound at each gradient concentration was added. That is, the highest concentration was 10 μM, which was diluted stepwise by ⅓, and 8 concentration points were set in total; 0.1% DMSO (dimethyl sulfoxide) was contained in the system. The cell plate with uniformly mixed compound was cultured in a cell culture incubator (37° C.; 5% […]) for 48 h, then 20 μL of MTS reaction solution was added, uniformly mixed and incubated in the cell culture incubator (37° C.; 5% CO2) for 1-4 h; OD values at 490 nm were measured by a microplate reader (VARIOSKAN FLASH, Thermo). Two parallels were set in each group of experiments, with 0.1% (a final concentration) DMSO as a negative control, and a culture medium without cells and compounds as a blank control. The cell growth inhibition rate was calculated by the following formula: Cell growth inhibition rate %=1−(ODexperimental group−ODblank group)/(ODnegative group−ODblank group)×100%.
(§6) 4) IC50 calculation: The semi-inhibitory concentration of the compounds acting on cells was calculated using GradPad Prism 5 software according to the measured cell growth inhibition rate.

[2] = molecular target: BaF3 cell lines stably transfected with kinase EGFR L858R/T790M (Homo sapiens, UniProt P00533, T790M/L858R, cells depend on it); experiment: Growth inhibition of BaF3 cell line stably transfected with kinase EGFR L858R/T790M (MTS); conditions: 48 h, read-out: growth inhibitory activity IC50, L858R/T790M
Description: as §1, §2, §3, §4, §5, §6

[3] = molecular target: BaF3 cell lines stably transfected with kinase EGFR Del (Homo sapiens, UniProt P00533, cells depend on it, form not given); experiment: Growth inhibition of BaF3 cell line stably transfected with kinase EGFR Del (MTS); conditions: 48 h, read-out: growth inhibitory activity IC50, Del
BaF3 cell lines stably transfected with kinase EGFR Del, sequence (P00533 with tags, fused parts or gaps DEL746-750): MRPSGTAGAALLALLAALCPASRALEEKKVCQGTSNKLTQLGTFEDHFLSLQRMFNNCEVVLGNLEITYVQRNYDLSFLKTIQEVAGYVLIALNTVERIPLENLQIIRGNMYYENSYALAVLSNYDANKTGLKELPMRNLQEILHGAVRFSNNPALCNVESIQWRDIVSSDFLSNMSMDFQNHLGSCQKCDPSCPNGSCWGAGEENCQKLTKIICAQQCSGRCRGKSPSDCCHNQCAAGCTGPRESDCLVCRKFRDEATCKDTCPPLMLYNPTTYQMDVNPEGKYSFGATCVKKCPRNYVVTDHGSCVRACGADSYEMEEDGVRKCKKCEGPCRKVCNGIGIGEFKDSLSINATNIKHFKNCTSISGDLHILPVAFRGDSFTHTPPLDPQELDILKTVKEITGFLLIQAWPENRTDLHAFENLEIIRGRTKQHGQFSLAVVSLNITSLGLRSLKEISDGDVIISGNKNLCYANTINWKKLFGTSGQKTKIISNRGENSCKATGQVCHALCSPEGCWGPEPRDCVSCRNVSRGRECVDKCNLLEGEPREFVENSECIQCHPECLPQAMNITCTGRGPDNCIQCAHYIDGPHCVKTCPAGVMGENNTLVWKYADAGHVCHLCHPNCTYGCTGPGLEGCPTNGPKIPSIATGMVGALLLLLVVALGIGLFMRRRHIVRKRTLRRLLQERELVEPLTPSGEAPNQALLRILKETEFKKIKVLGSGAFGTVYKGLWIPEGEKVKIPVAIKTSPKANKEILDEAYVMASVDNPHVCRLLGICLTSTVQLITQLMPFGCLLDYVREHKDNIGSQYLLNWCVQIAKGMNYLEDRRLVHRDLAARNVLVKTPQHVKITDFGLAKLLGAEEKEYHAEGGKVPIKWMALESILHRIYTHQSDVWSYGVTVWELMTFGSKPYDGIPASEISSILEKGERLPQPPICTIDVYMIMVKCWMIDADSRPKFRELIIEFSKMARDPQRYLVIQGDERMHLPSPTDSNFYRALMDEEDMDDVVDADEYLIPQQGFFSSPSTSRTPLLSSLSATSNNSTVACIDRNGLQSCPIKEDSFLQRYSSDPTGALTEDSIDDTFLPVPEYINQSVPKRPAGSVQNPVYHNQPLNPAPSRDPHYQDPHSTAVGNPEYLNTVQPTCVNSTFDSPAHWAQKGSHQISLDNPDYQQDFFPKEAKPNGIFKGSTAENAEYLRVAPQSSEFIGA
Description: as §1, §2, §3, §4, §5, §6

[4] = molecular target: BaF3 cell lines stably transfected with kinase EGFR Del/T790M (Homo sapiens, UniProt P00533, T790M, cells depend on it, form not given); experiment: Growth inhibition of BaF3 cell line stably transfected with kinase EGFR Del/T790M (MTS); conditions: 48 h, read-out: growth inhibitory activity IC50, Del/T790M
BaF3 cell lines stably transfected with kinase EGFR Del/T790M, sequence (P00533 with tags, fused parts or gaps DEL746-750/T790M, form open): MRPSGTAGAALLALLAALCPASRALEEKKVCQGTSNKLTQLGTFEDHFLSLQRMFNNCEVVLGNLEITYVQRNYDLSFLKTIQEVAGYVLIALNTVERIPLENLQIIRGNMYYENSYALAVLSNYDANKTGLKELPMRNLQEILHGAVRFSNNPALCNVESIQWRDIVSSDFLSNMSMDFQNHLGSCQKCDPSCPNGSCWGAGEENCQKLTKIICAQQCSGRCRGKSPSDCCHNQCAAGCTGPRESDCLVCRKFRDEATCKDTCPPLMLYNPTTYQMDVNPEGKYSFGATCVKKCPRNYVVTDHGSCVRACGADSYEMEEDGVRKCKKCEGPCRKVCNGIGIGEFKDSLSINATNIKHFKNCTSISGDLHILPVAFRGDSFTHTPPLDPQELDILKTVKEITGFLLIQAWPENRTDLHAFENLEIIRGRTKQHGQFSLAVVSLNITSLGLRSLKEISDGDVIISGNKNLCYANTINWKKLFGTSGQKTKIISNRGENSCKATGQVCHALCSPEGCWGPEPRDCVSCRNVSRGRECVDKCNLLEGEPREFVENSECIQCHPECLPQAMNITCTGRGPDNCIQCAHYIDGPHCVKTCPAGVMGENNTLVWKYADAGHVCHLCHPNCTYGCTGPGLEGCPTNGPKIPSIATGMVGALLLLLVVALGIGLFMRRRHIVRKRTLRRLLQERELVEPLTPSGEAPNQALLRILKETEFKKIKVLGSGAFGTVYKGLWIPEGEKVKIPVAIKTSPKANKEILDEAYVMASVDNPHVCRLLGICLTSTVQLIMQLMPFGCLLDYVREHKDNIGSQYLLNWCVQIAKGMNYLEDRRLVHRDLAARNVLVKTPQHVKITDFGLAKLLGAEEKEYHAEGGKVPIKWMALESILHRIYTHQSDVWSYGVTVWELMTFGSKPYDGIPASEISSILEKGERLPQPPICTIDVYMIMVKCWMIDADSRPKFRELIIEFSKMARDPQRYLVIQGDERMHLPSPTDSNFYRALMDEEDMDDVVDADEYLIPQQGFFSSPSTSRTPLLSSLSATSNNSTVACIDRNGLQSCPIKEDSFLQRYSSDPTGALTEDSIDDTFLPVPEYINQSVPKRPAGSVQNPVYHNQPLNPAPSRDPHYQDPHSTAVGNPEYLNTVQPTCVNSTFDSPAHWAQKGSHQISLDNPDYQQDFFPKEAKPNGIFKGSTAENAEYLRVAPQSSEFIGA
Description: as §1, §2, §3, §4, §5, §6

[5] = molecular target: BaF3 cell lines stably transfected with kinase EGFR L858R/T790M/C797S (Homo sapiens, UniProt P00533, T790M/C797S/L858R, cells depend on it); experiment: Growth inhibition of BaF3 cell line stably transfected with kinase EGFR L858R/T790M/C797S (MTS); conditions: 48 h, read-out: growth inhibitory activity IC50, L858R/T790M/C797S
BaF3 cell lines stably transfected with kinase EGFR L858R/T790M/C797S, sequence (P00533 whole entry T790M/C797S/L858R): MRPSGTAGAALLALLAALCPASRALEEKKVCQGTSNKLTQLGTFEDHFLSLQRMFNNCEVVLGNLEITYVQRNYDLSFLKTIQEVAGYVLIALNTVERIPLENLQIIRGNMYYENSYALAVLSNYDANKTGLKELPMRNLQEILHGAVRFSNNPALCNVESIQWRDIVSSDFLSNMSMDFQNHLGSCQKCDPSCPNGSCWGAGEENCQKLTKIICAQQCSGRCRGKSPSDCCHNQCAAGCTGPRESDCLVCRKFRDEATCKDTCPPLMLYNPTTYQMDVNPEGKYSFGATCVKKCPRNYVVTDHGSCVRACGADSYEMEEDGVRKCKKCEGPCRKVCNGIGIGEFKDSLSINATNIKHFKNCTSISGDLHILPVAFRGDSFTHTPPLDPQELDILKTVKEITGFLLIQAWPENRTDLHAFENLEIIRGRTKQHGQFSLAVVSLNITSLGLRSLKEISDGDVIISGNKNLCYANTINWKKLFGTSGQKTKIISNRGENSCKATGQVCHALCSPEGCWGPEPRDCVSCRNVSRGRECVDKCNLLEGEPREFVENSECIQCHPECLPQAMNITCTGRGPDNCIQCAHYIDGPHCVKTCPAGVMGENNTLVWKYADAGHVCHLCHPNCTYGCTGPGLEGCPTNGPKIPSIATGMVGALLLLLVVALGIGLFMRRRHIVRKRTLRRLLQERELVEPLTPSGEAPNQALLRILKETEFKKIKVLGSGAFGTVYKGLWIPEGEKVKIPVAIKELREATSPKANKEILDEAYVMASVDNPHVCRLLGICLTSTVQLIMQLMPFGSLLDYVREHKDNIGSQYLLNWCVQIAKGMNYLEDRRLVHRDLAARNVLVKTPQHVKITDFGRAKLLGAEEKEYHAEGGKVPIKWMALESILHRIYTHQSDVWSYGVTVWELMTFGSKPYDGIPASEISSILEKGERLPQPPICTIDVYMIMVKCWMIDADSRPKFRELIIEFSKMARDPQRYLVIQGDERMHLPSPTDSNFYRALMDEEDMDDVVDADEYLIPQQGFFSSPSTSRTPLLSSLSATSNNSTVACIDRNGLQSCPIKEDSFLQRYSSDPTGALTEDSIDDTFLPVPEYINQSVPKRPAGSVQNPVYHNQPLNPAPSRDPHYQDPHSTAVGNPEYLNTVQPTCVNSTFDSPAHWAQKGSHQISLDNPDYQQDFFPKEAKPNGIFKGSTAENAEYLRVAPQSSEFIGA
Description: as §1, §2, §3, §4, §5, §6

[6] = molecular target: BaF3 cell lines stably transfected with kinase EGFR L858R (Homo sapiens, UniProt P00533, L858R, cells depend on it); experiment: Growth inhibition of BaF3 cell line stably transfected with kinase EGFR L858R (MTS); conditions: 48 h, read-out: growth inhibitory activity IC50, L858R
BaF3 cell lines stably transfected with kinase EGFR L858R, sequence (P00533 whole entry L858R): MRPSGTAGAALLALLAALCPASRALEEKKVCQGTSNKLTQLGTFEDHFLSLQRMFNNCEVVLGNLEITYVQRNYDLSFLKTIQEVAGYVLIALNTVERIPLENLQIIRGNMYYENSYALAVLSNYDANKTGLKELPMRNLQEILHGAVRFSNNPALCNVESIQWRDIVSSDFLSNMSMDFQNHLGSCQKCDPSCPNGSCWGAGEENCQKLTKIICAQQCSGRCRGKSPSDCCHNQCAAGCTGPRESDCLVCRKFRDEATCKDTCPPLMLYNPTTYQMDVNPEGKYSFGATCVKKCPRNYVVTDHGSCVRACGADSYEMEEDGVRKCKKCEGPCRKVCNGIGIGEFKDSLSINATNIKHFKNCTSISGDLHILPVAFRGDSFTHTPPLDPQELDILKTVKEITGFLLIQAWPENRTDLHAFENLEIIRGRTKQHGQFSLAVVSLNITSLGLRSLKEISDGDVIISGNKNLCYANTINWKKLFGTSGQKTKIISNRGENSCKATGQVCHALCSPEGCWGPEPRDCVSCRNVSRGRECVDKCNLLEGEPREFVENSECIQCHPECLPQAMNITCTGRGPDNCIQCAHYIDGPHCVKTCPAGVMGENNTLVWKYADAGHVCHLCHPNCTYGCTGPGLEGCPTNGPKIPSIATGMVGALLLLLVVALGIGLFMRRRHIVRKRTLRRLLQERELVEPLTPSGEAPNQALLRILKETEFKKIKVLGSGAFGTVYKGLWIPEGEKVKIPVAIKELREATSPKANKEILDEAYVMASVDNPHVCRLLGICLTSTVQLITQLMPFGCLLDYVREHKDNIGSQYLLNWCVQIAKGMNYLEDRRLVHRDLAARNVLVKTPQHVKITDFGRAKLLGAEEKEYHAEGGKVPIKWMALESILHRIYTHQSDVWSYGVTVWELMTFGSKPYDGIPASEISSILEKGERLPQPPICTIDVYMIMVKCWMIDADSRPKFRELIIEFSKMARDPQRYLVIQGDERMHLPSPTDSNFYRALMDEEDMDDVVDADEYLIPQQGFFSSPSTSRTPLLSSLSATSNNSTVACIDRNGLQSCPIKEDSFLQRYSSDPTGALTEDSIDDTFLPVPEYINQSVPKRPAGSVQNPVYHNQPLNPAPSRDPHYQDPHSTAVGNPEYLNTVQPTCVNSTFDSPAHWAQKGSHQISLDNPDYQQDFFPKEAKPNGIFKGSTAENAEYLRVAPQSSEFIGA
Description: as §1, §2, §3, §4, §5, §6

Measured: GI50

C=Cc1cnc(Nc2cc(CC)c(N3CCC(N4CCN(C)CC4)CC3)cc2OC)nc1Nc1ccc2nccnc2c1P(C)(C)=O [Compound I-1]
≤ 50 nM: all assays above

C=Cc1cnc(Nc2cc(CC)c(N3CCC(N(C)C)CC3)cc2OC)nc1Nc1ccc2nccnc2c1P(C)(C)=O [Compound I-2]
≤ 50 nM: all assays above

C=Cc1cnc(Nc2cc(CC)c(N3CCC(C(C)C)C3)cc2OC)nc1Nc1ccc2nccnc2c1P(C)(C)=O (stereo not drawn) [Compound I-3]
50 to 500 nM: [2] | [3]
≤ 50 nM: all other assays above

C=Cc1cnc(Nc2cc(CC)c(N3CCN(C)CC3)cc2OC)nc1Nc1ccc2nccnc2c1P(C)(C)=O [Compound I-4]
≤ 50 nM: all assays above

C=Cc1cnc(Nc2cc(CC)c(N3CCC(N4CCN(C)CC4)CC3)nc2OC)nc1Nc1ccc2nccnc2c1P(C)(C)=O [Compound I-5]
≤ 50 nM: all assays above

C=Cc1cnc(Nc2cc(CC)c(N3CCC(N4CCN(C)CC4)CC3)cc2OC(F)(F)F)nc1Nc1ccc2nccnc2c1P(C)(C)=O [Compound I-6]
50 to 500 nM: [3]
≤ 50 nM: all other assays above

C=Cc1cnc(Nc2cc(CC3CC3)c(N3CCC(N4CCN(C)CC4)CC3)cc2OC)nc1Nc1ccc2nccnc2c1P(C)(C)=O [Compound I-7]
≤ 50 nM: all assays above

C=Cc1cnc(Nc2cc(C)c(N3CCC(N4CCN(C)CC4)CC3)cc2OC)nc1Nc1ccc2nccnc2c1P(C)(C)=O [Compound I-9]
≤ 50 nM: all assays above

CCc1cc(Nc2ncc(C=C(C)C)c(Nc3ccc4nccnc4c3P(C)(C)=O)n2)c(OC)cc1N1CCC(N2CCN(C)CC2)CC1 [Compound I-10]
500 to 2500 nM: [4]
≤ 50 nM: [3] | [6]
50 to 500 nM: all other assays above

CCc1cc(Nc2ncc(/C=C/C3CC3)c(Nc3ccc4nccnc4c3P(C)(C)=O)n2)c(OC)cc1N1CCC(N2CCN(C)CC2)CC1 [Compound I-11]
≤ 50 nM: [3] | [6]
50 to 500 nM: all other assays above

CCc1cc(Nc2ncc(C3=CCCC3)c(Nc3ccc4nccnc4c3P(C)(C)=O)n2)c(OC)cc1N1CCC(N2CCN(C)CC2)CC1 [Compound I-13]
≤ 50 nM: [3] | [6]
50 to 500 nM: all other assays above

CCc1cc(Nc2ncc(/C=C/c3ccccc3)c(Nc3ccc4nccnc4c3P(C)(C)=O)n2)c(OC)cc1N1CCC(N2CCN(C)CC2)CC1 [Compound I-14]
500 to 2500 nM: [2]
≤ 50 nM: [6]
50 to 500 nM: all other assays above

C=C(C)c1cnc(Nc2cc(CC)c(N3CCC(N4CCN(C)CC4)CC3)cc2OC)nc1Nc1ccc2nccnc2c1P(C)(C)=O [Compound I-15]
≤ 50 nM: all assays above

C=Cc1cnc(Nc2cc(C(C)C)c(N3CCC(N4CCN(C)CC4)CC3)cc2OC)nc1Nc1ccc2nccnc2c1P(C)(C)=O [Compound I-16]
50 to 500 nM: all assays above
